Source: publication PMC5218480 (PLoS ONE, 2017)

System: MV-4-11 cells
Assay: Gene expression microarray analysis (Affymetrix PrimeView) and GSEA
Format: cell-based, human
Set-up: RFU PODN (11730768_x_at) / Fold change /veh PODN (11730768_x_at) / RFU LINC00158 (11744669_a_at) / Fold change /veh LINC00158 (11744669_a_at) / RFU DUSP10 (11751237_a_at) / Fold change /veh DUSP10 (11751237_a_at) / RFU ID3 (11757404_x_at) / Fold change /veh ID3 (11757404_x_at) / RFU PLEKHG5 (11737974_s_at) / Fold change /veh PLEKHG5 (11737974_s_at) / RFU LRRC4B (11730491_at) / Fold change /veh LRRC4B (11730491_at) / RFU GIMAP4 (11747438_a_at) / Fold change /veh GIMAP4 (11747438_a_at) / RFU KRT8 (11758183_x_at) / Fold change /veh KRT8 (11758183_x_at) / RFU CNN1 (11734310_a_at) / Fold change /veh CNN1 (11734310_a_at) / RFU VPS37D (11726825_at) / Fold change /veh VPS37D (11726825_at) / RFU C10orf10 (11716522_x_at) / Fold change /veh C10orf10 (11716522_x_at) / RFU KIR2DL2 /// KIR2DL4 /// KIR2DL5A /// KIR2DL5B /// KIR2DS1 /// KIR2DS2 /// KIR2DS3 /// KIR2DS4 /// KIR3DL3 /// KIR3DL3 /// KIR3DS1 (11738374_at) / Fold change /veh KIR2DL2 /// KIR2DL4 /// KIR2DL5A /// KIR2DL5B /// KIR2DS1 /// KIR2DS2 /// KIR2DS3 /// KIR2DS4 /// KIR3DL3 /// KIR3DL3 /// KIR3DS1 (11738374_at) / RFU C1QL1 (11718748_at) / Fold change /veh C1QL1 (11718748_at) / RFU TMPRSS4 (11747572_a_at) / Fold change /veh TMPRSS4 (11747572_a_at) / RFU HAMP (11756126_x_at) / Fold change /veh HAMP (11756126_x_at) / RFU RNFT2 (11725882_a_at) / Fold change /veh RNFT2 (11725882_a_at) / RFU NR4A2 (11747474_a_at) / Fold change /veh NR4A2 (11747474_a_at) / RFU ABCC12 (11746883_a_at) / Fold change /veh ABCC12 (11746883_a_at) / RFU TMEM136 (11760407_x_at) / Fold change /veh TMEM136 (11760407_x_at) / RFU CLDN22 /// WWC2 (11732394_at) / Fold change /veh CLDN22 /// WWC2 (11732394_at) / RFU HLA-DPB1 (11760878_x_at) / Fold change /veh HLA-DPB1 (11760878_x_at) / RFU SPINT1 (11716480_a_at) / Fold change /veh SPINT1 (11716480_a_at) / RFU GAP43 (11754022_s_at) / Fold change /veh GAP43 (11754022_s_at) / RFU A4GNT (11735810_at) / Fold change /veh A4GNT (11735810_at) / RFU PRB3 (11715151_x_at) / Fold change /veh PRB3 (11715151_x_at) / RFU TUBB4B (11761932_at) / Fold change /veh TUBB4B (11761932_at) / RFU CAPN14 (11732068_a_at) / Fold change /veh CAPN14 (11732068_a_at) / RFU TMCC2 (11721928_a_at) / Fold change /veh TMCC2 (11721928_a_at) / RFU IRGQ (11745062_a_at) / Fold change /veh IRGQ (11745062_a_at) / RFU FAM174B (11720279_a_at) / Fold change /veh FAM174B (11720279_a_at) / RFU TMPRSS4 (11748680_a_at) / Fold change /veh TMPRSS4 (11748680_a_at) / RFU FAM212B (11763350_a_at) / Fold change /veh FAM212B (11763350_a_at) / RFU PLEKHG5 (11743358_a_at) / Fold change /veh PLEKHG5 (11743358_a_at) / RFU ZSCAN30 (11745921_a_at) / Fold change /veh ZSCAN30 (11745921_a_at) / RFU CMKLR1 (11741424_a_at) / Fold change /veh CMKLR1 (11741424_a_at) / RFU LOC101060620 /// MAPK8IP1 (11723275_at) / Fold change /veh LOC101060620 /// MAPK8IP1 (11723275_at) / RFU SPTSSB (11747773_x_at) / Fold change /veh SPTSSB (11747773_x_at) / RFU PRSS12 (11739890_at) / Fold change /veh PRSS12 (11739890_at) / RFU BIN1 (11741810_x_at) / Fold change /veh BIN1 (11741810_x_at) / RFU WNT11 (11732464_a_at) / Fold change /veh WNT11 (11732464_a_at) / RFU C10orf10 (11716521_a_at) / Fold change /veh C10orf10 (11716521_a_at) / RFU C5orf56 (11738089_at) / Fold change /veh C5orf56 (11738089_at) / RFU CYB561 (11721691_x_at) / Fold change /veh CYB561 (11721691_x_at) / RFU ANKRD19P (11752326_a_at) / Fold change /veh ANKRD19P (11752326_a_at) / RFU OR2T12 /// OR2T33 /// OR2T8 (11738714_s_at) / Fold change /veh OR2T12 /// OR2T33 /// OR2T8 (11738714_s_at) / RFU VCAN (11748164_a_at) / Fold change /veh VCAN (11748164_a_at) / RFU JSRP1 (11732532_at) / Fold change /veh JSRP1 (11732532_at) / RFU KRTAP10-11 (11738290_x_at) / Fold change /veh KRTAP10-11 (11738290_x_at) / RFU MYO3A (11730013_a_at) / Fold change /veh MYO3A (11730013_a_at) / RFU EBF3 (11725865_a_at) / Fold change /veh EBF3 (11725865_a_at) / RFU CAMK2N1 (11719241_x_at) / Fold change /veh CAMK2N1 (11719241_x_at) / RFU C5orf56 (11738088_a_at) / Fold change /veh C5orf56 (11738088_a_at) / RFU OLFML3 (11715873_a_at) / Fold change /veh OLFML3 (11715873_a_at) / RFU LOC100653217 /// NTM (11731650_a_at) / Fold change /veh LOC100653217 /// NTM (11731650_a_at) / RFU MAPK11 (11762145_a_at) / Fold change /veh MAPK11 (11762145_a_at) / RFU FIZ1 (11724087_x_at) / Fold change /veh FIZ1 (11724087_x_at) / RFU OASL (11726364_x_at) / Fold change /veh OASL (11726364_x_at) / RFU SOX15 (11748057_x_at) / Fold change /veh SOX15 (11748057_x_at) / RFU CD79A (11719716_a_at) / Fold change /veh CD79A (11719716_a_at) / RFU HIST1H1D (11736915_at) / Fold change /veh HIST1H1D (11736915_at) / RFU CASKIN2 (11723855_a_at) / Fold change /veh CASKIN2 (11723855_a_at) / RFU LOC730098 (11760151_x_at) / Fold change /veh LOC730098 (11760151_x_at) / RFU OR4N2 (11742367_at) / Fold change /veh OR4N2 (11742367_at) / RFU PRRT2 (11749266_a_at) / Fold change /veh PRRT2 (11749266_a_at) / RFU SNX32 (11753110_a_at) / Fold change /veh SNX32 (11753110_a_at) / RFU CDHR5 (11726645_a_at) / Fold change /veh CDHR5 (11726645_a_at) / RFU RCAN1 (11760418_a_at) / Fold change /veh RCAN1 (11760418_a_at) / RFU FAM167A (11723789_a_at) / Fold change /veh FAM167A (11723789_a_at) / RFU FAM26E (11764081_at) / Fold change /veh FAM26E (11764081_at) / RFU ISYNA1 (11749810_s_at) / Fold change /veh ISYNA1 (11749810_s_at) / RFU ACY1 (11761880_at) / Fold change /veh ACY1 (11761880_at) / RFU 11764098_at / Fold change /veh 11764098_at / RFU SAMD14 (11745864_x_at) / Fold change /veh SAMD14 (11745864_x_at) / RFU NPB (11741838_a_at) / Fold change /veh NPB (11741838_a_at) / RFU TMPRSS6 (11731388_a_at) / Fold change /veh TMPRSS6 (11731388_a_at) / RFU KRTAP10-2 (11738614_at) / Fold change /veh KRTAP10-2 (11738614_at) / RFU ARHGAP8 /// PRR5-ARHGAP8 (11727945_x_at) / Fold change /veh ARHGAP8 /// PRR5-ARHGAP8 (11727945_x_at) / RFU KRTAP5-7 /// NADSYN1 (11734609_at) / Fold change /veh KRTAP5-7 /// NADSYN1 (11734609_at) / RFU RASL12 (11751679_a_at) / Fold change /veh RASL12 (11751679_a_at) / RFU CDKN2B (11736163_a_at) / Fold change /veh CDKN2B (11736163_a_at) / RFU PRF1 (11729649_at) / Fold change /veh PRF1 (11729649_at) / RFU, ZNF638 /// ZNF638-IT1 / Fold change vs veh, ZNF638 /// ZNF638-IT1 / RFU, PANK3 / Fold change vs veh, PANK3 / RFU, SH3YL1 / Fold change vs veh, SH3YL1 / RFU, ZEB2 / Fold change vs veh, ZEB2 / RFU, NRIP1 / Fold change vs veh, NRIP1 / RFU, PTTG1IP / Fold change vs veh, PTTG1IP / RFU, CAPN2 / Fold change vs veh, CAPN2 / RFU, MED14 / Fold change vs veh, MED14 / RFU, SNORA58 / Fold change vs veh, SNORA58 / RFU, C1orf63 / Fold change vs veh, C1orf63 / RFU, LRRFIP1 / Fold change vs veh, LRRFIP1 / RFU, NDUFAF7 / Fold change vs veh, NDUFAF7 / RFU, SLC12A2 / Fold change vs veh, SLC12A2 / RFU, IBTK / Fold change vs veh, IBTK / RFU, ESF1 / Fold change vs veh, ESF1 / Fold change vs veh, TMEM50B / RFU, TAOK1 / Fold change vs veh, TAOK1 / RFU, ACBD3 / Fold change vs veh, ACBD3 / RFU, TMA16 / Fold change vs veh, TMA16 / RFU, RWDD3 / Fold change vs veh, RWDD3 / RFU, BCAT1 / Fold change vs veh, BCAT1 / RFU, EDEM3 / Fold change vs veh, EDEM3 / RFU, TMEM33 / Fold change vs veh, TMEM33 / RFU, WDR75 / Fold change vs veh, WDR75 / RFU, AHCTF1 / Fold change vs veh, AHCTF1 / RFU, TFRC / Fold change vs veh, TFRC / RFU, ZDHHC17 / Fold change vs veh, ZDHHC17 / RFU, NOM1 / Fold change vs veh, NOM1 / RFU, ARL8B / Fold change vs veh, ARL8B / RFU, ZBTB11 / Fold change vs veh, ZBTB11 / RFU, TAMM41 / Fold change vs veh, TAMM41 / RFU, KIAA1704 /// LOC100996395 / Fold change vs veh, KIAA1704 /// LOC100996395 / RFU, ING1 / Fold change vs veh, ING1 / RFU, TRMT61B / Fold change vs veh, TRMT61B / RFU, FUBP3 / Fold change vs veh, FUBP3 / RFU, TP53 / Fold change vs veh, TP53 / RFU, TNKS2 / Fold change vs veh, TNKS2 / RFU, ZFP14 / Fold change vs veh, ZFP14 / RFU, ACTR2 / Fold change vs veh, ACTR2 / RFU, PPP3R1 / Fold change vs veh, PPP3R1 / RFU, PIK3R1 / Fold change vs veh, PIK3R1 / RFU, HNRNPA1 / Fold change vs veh, HNRNPA1 / RFU, RNF170 / Fold change vs veh, RNF170 / RFU, ZNF28 / Fold change vs veh, ZNF28 / RFU, RNGTT / Fold change vs veh, RNGTT / RFU, OGT / Fold change vs veh, OGT / RFU, BRD1 / Fold change vs veh, BRD1 / RFU, MARS / Fold change vs veh, MARS / RFU, ZNF655 / Fold change vs veh, ZNF655 / RFU, FAHD1 / Fold change vs veh, FAHD1 / RFU, BDP1 / Fold change vs veh, BDP1 / RFU, LRRCC1 / Fold change vs veh, LRRCC1 / RFU, ARID1A / Fold change vs veh, ARID1A / RFU, ZNF146 / Fold change vs veh, ZNF146 / RFU, ZNF330 / Fold change vs veh, ZNF330 / RFU, GPN3 / Fold change vs veh, GPN3 / RFU, C9orf123 / Fold change vs veh, C9orf123 / RFU, N4BP2L2 / Fold change vs veh, N4BP2L2 / RFU, ARFIP1 / Fold change vs veh, ARFIP1 / RFU, FAM179B / Fold change vs veh, FAM179B / RFU, BCL10 / Fold change vs veh, BCL10 / RFU, UHRF1BP1L / Fold change vs veh, UHRF1BP1L / RFU, BET1 / Fold change vs veh, BET1 / RFU, CNOT2 / Fold change vs veh, CNOT2 / RFU, ZNF268 / Fold change vs veh, ZNF268 / Fold change vs veh, ZNF507 / RFU, DGCR2 / Fold change vs veh, DGCR2 / RFU, WDSUB1 / Fold change vs veh, WDSUB1 / Fold change vs veh, HSP90B1 /// MIR3652 / RFU, ADSS / Fold change vs veh, ADSS / RFU, GK / Fold change vs veh, GK / RFU, ZNF148 / Fold change vs veh, ZNF148 / RFU, TAF9 / Fold change vs veh, TAF9 / RFU, SLC1A5 / Fold change vs veh, SLC1A5 / RFU, SLMO2 / Fold change vs veh, SLMO2 / RFU, ABCC4 / Fold change vs veh, ABCC4 / RFU, LOC101060439 /// RAP1B / Fold change vs veh, LOC101060439 /// RAP1B / RFU, RFX7 / Fold change vs veh, RFX7 / RFU, GTPBP10 / Fold change vs veh, GTPBP10 / RFU, CNEP1R1 / Fold change vs veh, CNEP1R1 / RFU, BIVM-ERCC5 /// ERCC5 / Fold change vs veh, BIVM-ERCC5 /// ERCC5 / RFU, ILF3 / Fold change vs veh, ILF3 / RFU 11762660_at / Fold change /veh 11762660_at / RFU VCAN (11757783_s_at) / Fold change /veh VCAN (11757783_s_at) / RFU DDX43 (11728927_at) / Fold change /veh DDX43 (11728927_at) / RFU KRT8 (11758188_x_at) / Fold change /veh KRT8 (11758188_x_at) / RFU NKD1 (11759106_at) / Fold change /veh NKD1 (11759106_at) / RFU SRD5A1 (11742802_a_at) / Fold change /veh SRD5A1 (11742802_a_at) / RFU TPSAB1 /// TPSB2 (11721975_s_at) / Fold change /veh TPSAB1 /// TPSB2 (11721975_s_at) / RFU GSTM3 (11746129_a_at) / Fold change /veh GSTM3 (11746129_a_at) / RFU IL23R (11737362_x_at) / Fold change /veh IL23R (11737362_x_at) / RFU TMEM51 (11727254_a_at) / Fold change /veh TMEM51 (11727254_a_at) / RFU PIWIL2 (11732686_x_at) / Fold change /veh PIWIL2 (11732686_x_at) / RFU ORM1 (11744905_x_at) / Fold change /veh ORM1 (11744905_x_at) / RFU CCDC152 (11743942_at) / Fold change /veh CCDC152 (11743942_at) / RFU ECM1 (11717891_a_at) / Fold change /veh ECM1 (11717891_a_at) / RFU IL23R (11748794_a_at) / Fold change /veh IL23R (11748794_a_at) / RFU TNFAIP8L3 (11732012_x_at) / Fold change /veh TNFAIP8L3 (11732012_x_at) / RFU MBOAT4 (11741988_at) / Fold change /veh MBOAT4 (11741988_at) / RFU 11764193_at / Fold change /veh 11764193_at / RFU TMEM53 (11763286_at) / Fold change /veh TMEM53 (11763286_at) / RFU MAGEB2 (11727129_at) / Fold change /veh MAGEB2 (11727129_at) / RFU TMEM200A (11744735_a_at) / Fold change /veh TMEM200A (11744735_a_at) / RFU CCDC152 (11751479_a_at) / Fold change /veh CCDC152 (11751479_a_at) / RFU FAM211A (11726209_a_at) / Fold change /veh FAM211A (11726209_a_at) / RFU RGS16 (11746705_a_at) / Fold change /veh RGS16 (11746705_a_at) / RFU VCAN (11755009_s_at) / Fold change /veh VCAN (11755009_s_at) / RFU RHOB (11743442_s_at) / Fold change /veh RHOB (11743442_s_at) / RFU RGS16 (11720943_a_at) / Fold change /veh RGS16 (11720943_a_at) / RFU RGS16 (11720944_at) / Fold change /veh RGS16 (11720944_at) / RFU, VPS4B / Fold change vs veh, VPS4B / RFU, CREB1 / Fold change vs veh, CREB1 / RFU, DNAJC13 / Fold change vs veh, DNAJC13 / RFU, GNAQ / Fold change vs veh, GNAQ / RFU, CDK5R1 / Fold change vs veh, CDK5R1 / RFU, ZRANB3 / Fold change vs veh, ZRANB3 / RFU, CUL4A / Fold change vs veh, CUL4A / RFU, CCNY / Fold change vs veh, CCNY / RFU, UFL1 / Fold change vs veh, UFL1 / RFU, COG3 / Fold change vs veh, COG3 / RFU, DIAPH2 / Fold change vs veh, DIAPH2 / RFU, SKA2 / Fold change vs veh, SKA2 / RFU, AFF3 / Fold change vs veh, AFF3 / RFU, LMF1 / Fold change vs veh, LMF1 / RFU, IPO11 / Fold change vs veh, IPO11 / RFU, DFFB / Fold change vs veh, DFFB / RFU, FOXP1 / Fold change vs veh, FOXP1 / RFU, CARD8 / Fold change vs veh, CARD8 / RFU, STRN3 / Fold change vs veh, STRN3 / RFU, ADK / Fold change vs veh, ADK / RFU, RASSF2 / Fold change vs veh, RASSF2 / RFU, WIPF1 / Fold change vs veh, WIPF1 / RFU, LARP1B / Fold change vs veh, LARP1B / RFU, RASA1 / Fold change vs veh, RASA1 / RFU, RB1 / Fold change vs veh, RB1 / RFU, PPFIA1 / Fold change vs veh, PPFIA1 / RFU, MAT2A / Fold change vs veh, MAT2A / RFU, CCT5 / Fold change vs veh, CCT5 / RFU, WDR92 / Fold change vs veh, WDR92 / RFU, CUX1 / Fold change vs veh, CUX1 / RFU, TTC7A / Fold change vs veh, TTC7A / RFU, TMEM135 / Fold change vs veh, TMEM135 / RFU, DEPTOR / Fold change vs veh, DEPTOR / RFU, CPM / Fold change vs veh, CPM / RFU, DNAJB6 / Fold change vs veh, DNAJB6 / RFU, CACNA2D3 / Fold change vs veh, CACNA2D3 / RFU, DTX4 / Fold change vs veh, DTX4 / RFU, TFCP2 / Fold change vs veh, TFCP2 / RFU, GMCL1 /// GMCL1P1 / Fold change vs veh, GMCL1 /// GMCL1P1 / RFU, AEBP2 / Fold change vs veh, AEBP2 / RFU, SNHG1 /// SNORD22 /// SNORD25 /// SNORD26 /// SNORD27 /// SNORD28 /// SNORD29 /// SNORD31 / Fold change vs veh, SNHG1 /// SNORD22 /// SNORD25 /// SNORD26 /// SNORD27 /// SNORD28 /// SNORD29 /// SNORD31 / Fold change (Aza/veh), C12orf56 (ProbeSet 11735607_a_at) / Fold change (ACY-1035/veh), C12orf56 (ProbeSet 11735607_a_at) / Fold change (Aza/veh), FGFR1OP (ProbeSet 11751329_s_at) / Fold change (ACY-1035/veh), FGFR1OP (ProbeSet 11751329_s_at) / Fold change (Aza/veh), VPS36 (ProbeSet 11739960_a_at) / Fold change (ACY-1035/veh), VPS36 (ProbeSet 11739960_a_at) / RFU SYPL1 (11715823_x_at) / Fold change /veh SYPL1 (11715823_x_at) / RFU IGFBP7 (11715501_s_at) / Fold change /veh IGFBP7 (11715501_s_at) / RFU REEP3 (11722064_at) / Fold change /veh REEP3 (11722064_at) / RFU IGLL1 (11728026_x_at) / Fold change /veh IGLL1 (11728026_x_at): dose or concentration left out as unconfirmed
Conditions: ProbeSet 11716844_s_at; LIST D

## Nc1ncn([C@@H]2O[C@H](CO)[C@@H](O)[C@H]2O)c(=O)n1 [azacitidine]
  RFU, DNAJC13: 111.36 RFU
